Reference: patent US20120114583A1, “USE OF DIHYDROQUERCETIN AND AT LEAST ONE AMINO ACID TO POSITIVELY INFLUENCE THE NATURAL PIGMENTATION PROCESS” (Henkel AG & Co. KGaA, priority 2009, published 2012)

Columns and labels:
Assay type in all cases: cell-based
gp100 = experiment: Differential gene expression of gp100 by quantitative RT-PCR in organotypical hair follicle cell cultures; conditions: for gp100 expression, Mean: 48 h, dermal papilla cell 3D cultures, untreated control = 1
Protocol: Gp 100 is a protein that occurs in the membrane of melanosomes and stabilizes them. Since more melanin is produced in the cells following application of substances that positively influence melanogenesis, an increase in the melanosomes necessary for transport also occurs. A substance that induces the gene expression of gp100 is therefore a pigmentation-stimulating active ingredient. Differential gene expression was determined by means of quantitative RT-PCR. After preparing three-dimensional organotypical hair follicle cell cultures from dermal papilla cells on microcarriers, they were incubated for 48 h with dihydroquercetin in two different concentrations. In order to perform PCR the RNA was first isolated from the organotypical cell cultures with the aid of an RNeasy Mini Kit from Qiagen and transcribed into cDNA by reverse transcription. In the subsequent PCR reaction, which is performed for each gene with the aid of gene-specific primers and which serves to amplify the required gene sections, the formation of PCR products is detected online via a fluorescence signal. The fluorescence signal is proportional to the amount of PCR product formed. The stronger the expression of a particular gene, the greater the amount of PCR product formed and the higher the fluorescence signal. To quantify the gene expression the untreated control is set to 1 and the expression of the gene to be determined is referenced thereto (x-times expression). […] Values greater than or equal to the 1.5 times expression or less than or equal to the 0.7 times expression of the untreated control are classed as being expressed in a tangentially differential manner.

[1] = tested on: hair follicle equivalents; experiment: Melanin content in hair follicle equivalents; conditions: for Melanin content d4 Mean: day 4; for Melanin content d7 Mean: day 7, untreated control 181
Protocol: In order to assess the melanin content, three-dimensional organotypical hair follicle cell cultures prepared from dermal papilla cells, hair follicle melanocytes and outer root sheath keratinocytes were treated with dihydroquercetin (10 μM and 100 μM) for 7 days. Untreated cell cultures served as a control. After 4 and 7 days respectively, the hair follicle equivalents were homogenized and the melanin extracted with NaOH (1M)+10% DMSO at 100° C. for 45 min. Aliquots of the specimens were then transferred to a 96-well plate and the extinction was measured at 492 nm. The rise in the melanin content from day 0 to day 7 was evaluated. All values were referenced to the untreated control on day 7 (=100%).

ckit = experiment: Differential gene expression of ckit by quantitative RT-PCR in organotypical hair follicle cell cultures; conditions: for ckit expression, Mean: 48 h, dermal papilla cell 3D cultures, untreated control = 1
Source text: (§1) The ligands involved in melanogenesis, such as SCF or alpha-MSH (melanocyte stimulating hormone alpha) bind to different receptors, through which the corresponding signal is transmitted into the cell interior. The receptor for SCF is ckit, the receptor for alpha-MSH is MCR-1 (melanocortin receptor 1). Substances that bring about a change in the expression of MCR-1 and/or ckit can influence melanogenesis. If an induction (up-regulation or stimulation) of the gene expression of the corresponding receptors occurs, melanogenesis is assumed to be stimulated. Differential gene expression was determined by means of quantitative RT-PCR. After preparing three-dimensional organotypical hair follicle cell cultures from dermal papilla cells on microcarriers, they were incubated for 48 h with dihydroquercetin in two different concentrations. In order to perform PCR the RNA was first isolated from the organotypical cell cultures with the aid of an RNeasy Mini Kit from Qiagen and transcribed into cDNA by reverse transcription. In the subsequent PCR reaction, which is performed for each gene with the aid of gene-specific primers and which serves to amplify the required gene sections, the formation of PCR products is detected online via a fluorescence signal. The fluorescence signal is proportional to the amount of PCR product formed. The stronger the expression of a particular gene, the greater the amount of PCR product formed and the higher the fluorescence signal. To quantify the gene expression the untreated control is set to 1 and the expression of the gene to be determined is referenced thereto (x-times expression). […] Values greater than or equal to the 1.5 times expression or less than or equal to the 0.7 times expression of the untreated control are classed as being expressed in a tangentially differential manner.

[2] = tested on: MCR1 (melanocortin receptor 1); experiment: Differential gene expression of MCR1 by quantitative RT-PCR in organotypical hair follicle cell cultures; conditions: for MCR1 expression, Mean: 48 h, dermal papilla cell 3D cultures, untreated control = 1
Source text: as §1

O=C1c2c(O)cc(O)cc2OC(c2ccc(O)c(O)c2)C1O (stereo not drawn) [Dihydroquercetin, 3,3′,4′,5,7-pentahydroxyflavanone]
gp100 expression, Mean (gp100; 10 μM): 0.89 x-times expression
gp100 expression (in words) (gp100; 100 μM): induced
gp100 expression, Mean (gp100; 100 μM): 3.48 x-times expression
Melanin content d4 Mean ([1]; 10 μM): 100%
Melanin content d7 Mean ([1]; 10 μM): 254%
Melanin content d4 Mean ([1]; 100 μM): 100%
Melanin content d7 Mean ([1]; 100 μM): 161%
melanin synthesis in comparison to the control (in words) ([1]; both concentration levels tested (10 μM and 100 μM)): increased markedly
ckit expression, Mean (ckit; 10 μM): 1.32 x-times expression
ckit expression (in words) (ckit; 100 μM): induced
ckit expression, Mean (ckit; 100 μM): 3.55 x-times expression
MCR1 expression, Mean ([2]; 10 μM): 2.56 x-times expression
MCR1 expression (in words) ([2]; 10 μM, significantly differential = >= 1.8 times or <= 0.5 times untreated control): expressed in a significantly differential manner
MCR1 expression (in words) ([2]; 100 μM): induced
MCR1 expression, Mean ([2]; 100 μM): 5.17 x-times expression
